Results: patent US7414054B2, “3-(arylamino)methylene-1, 3-dihydro-2H-indol-2-ones as kinase inhibitors” (Allergan, Inc., priority 2001, dated 2008)

What was measured:
[1] = test system: VEGF induced increases in intracellular calcium levels in HUVEC (human umbilical vein endothelial cells); test: VEGF Stimulated Ca++ Signal In Vitro (FLIPR); assay type: cell-based; details: VEGF 5 ng/mL; for IC50: 0.01 to 10.0 μM
Method: VEGF Stimulated Ca^++ Signal In Vitro
(§1) Automated FLIPR (Fluorometric Imaging Plate Reader) technology was used to screen for inhibitors of VEGF induced increases in intracellular calcium levels in fluorescent dye loaded endothelial cells. HUVEC (human umbilical vein endothelial cells) (Clonetics) were seeded in 96-well fibronectin coated black-walled plates overnight at 37° C./5% CO2. Cells were loaded with calcium indicator Fluo-4 for 45 minutes at 37° C. Cells were washed 4 times (Original Cell Wash, Labsystems) to remove extracellular dye. Test compounds were reconstituted in 100% DMSO and added to the cells to give a final DMSO concentration of 0.1%. For screening, cells were pre-incubated with test agents for 30 minutes, at a single concentration (10 μM) or at concentrations ranging from 0.01 to 10.0 μM followed by VEGF stimulation (5 ng/mL). Changes in fluorescence at 516 nm were measured simultaneously in all 96 wells using a cooled CCD camera. Data were generated by determining max-min fluorescence levels for unstimulated, stimulated, and drug treated samples. IC50 values for test compounds were calculated from % inhibition of VEGF stimulated responses in the absence of inhibitor. Protocol for KDR Assay: KDR Assay: The cytoplasmic domain of the human VEGF receptor (VEGFR-2) was expressed as a Histidine-tagged fusion protein following infection of insect cells using an engineered baculovirus. His-VEGFR-2 was purified to homogeneity, as determined by SDS-PAGE, using nickel resin chromatography. Kinase assays were performed in 96 well microtiter plates that were coated overnight with 30 μg of poly-Glu-Tyr (4:1) in 10 mM Phosphate Buffered Saline (PBS), pH 7.2-7.4. The plates were incubated with 1% BSA and then washed four times with PBS prior to starting the reaction. Reactions were carried out in 120 μL reaction volumes containing 3.6 μM ATP in kinase buffer (50 mM Hepes buffer pH 7.4, 20 mM MgCl2, 0.1 mM MnCl2 and 0.2 mM Na3VO4). Test compounds were reconstituted in 100% DMSO and added to the reaction to give a final DMSO concentration of 5%. Reactions were initiated by the addition 0.5 ng of purified protein. Following a ten minute incubation at 25° C., the reactions were washed four times with PBS containing 0.05% Tween-20. 100 μl of a monoclonal anti-phosphotyrosine antibody-peroxidase conjugate was diluted 1:10000 in PBS-Tween-20 and added to the wells for 30 minutes. Following four washes with PBS-Tween-20, 100 μl of O-phenylenediamine Dihydrochloride in Phosphate-citrate buffer, containing urea hydrogen peroxide, was added to the wells for 7 minutes as a colorimetric substrate for the peroxidase. The reaction was terminated by the addition of 100 μl of 2.5N H2SO4 to each well and read using a microplate ELISA reader set at 492 nm. IC50 values for compound inhibition were calculated directly from graphs of optical density (arbitrary units) versus compound concentration following subtraction of blank values. VEGF-induced Dermal Extravasation in Guinea Pig (Miles Assay). Male Hartley guinea pigs (300-600 g) were anesthetized with isofluorane, sheared, and given a single dose of drug or the respective vehicle. The guinea pigs were dosed orally unless indicated otherwise in Table 3. Ten minutes prior to the end of drug treatment, guinea pigs were anesthetized with isofluorane, and 0.5% Evans blue dye (EBD) in PBS (13-15 mg/kg dose of EBD) was injected intravenously. After 5 minutes, triplicate intradermal injections of 100 ng rhVEGF165 in 100 μl PBS and of 100 μl PBS alone were administered on the flank. After 20 minutes, each animal was euthanized with Pentosol, and the skin containing the intradermal injection sites was removed for image analysis.

[2] = target: T1, cytoplasmic domain of the human VEGF receptor (VEGFR-2) (Homo sapiens, UniProt P35968); test: KDR Assay; assay type: biochemical; details: His-VEGFR-2; 3.6 μM ATP
T1 construct: The cytoplasmic domain of the human VEGF receptor (VEGFR-2) was expressed as a Histidine-tagged fusion protein; His (Histidine tag); made in house; host or cells: insect cells (baculovirus)
T1 sequence (P35968 786-1356 limits assumed): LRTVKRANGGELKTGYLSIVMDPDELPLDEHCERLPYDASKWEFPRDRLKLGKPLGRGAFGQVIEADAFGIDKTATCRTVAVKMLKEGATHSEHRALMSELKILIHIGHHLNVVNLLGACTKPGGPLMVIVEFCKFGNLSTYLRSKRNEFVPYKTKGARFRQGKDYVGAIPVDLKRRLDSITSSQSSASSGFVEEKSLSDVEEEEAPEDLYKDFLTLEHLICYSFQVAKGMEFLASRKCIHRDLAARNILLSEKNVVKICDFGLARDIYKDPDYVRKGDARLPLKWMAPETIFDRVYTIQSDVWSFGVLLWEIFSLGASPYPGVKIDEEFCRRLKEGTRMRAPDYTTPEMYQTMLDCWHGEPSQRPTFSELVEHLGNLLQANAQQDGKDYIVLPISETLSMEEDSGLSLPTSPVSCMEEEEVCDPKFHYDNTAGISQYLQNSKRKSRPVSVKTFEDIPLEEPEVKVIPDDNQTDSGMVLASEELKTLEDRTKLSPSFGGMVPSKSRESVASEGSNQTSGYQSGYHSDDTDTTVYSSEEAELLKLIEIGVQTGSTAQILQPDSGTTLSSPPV
Method: as §1, with “Following four washes with PBS-Tween-20, 100 μl of O-phenylenediamine Dihydrochloride in Phosphate-citrate buffer, containing urea hydrogen peroxide, was added to the wells for 7 minutes as a colorimetric substrate for the peroxidase.” left out, “VEGF-induced Dermal Extravasation in Guinea Pig (Miles Assay). Male Hartley guinea pigs (300-600 g) were anesthetized with isofluorane, sheared, and given a single dose of drug or the respective vehicle. The guinea pigs were dosed orally unless indicated otherwise in Table 3. Ten minutes prior to the end of drug treatment, guinea pigs were anesthetized with isofluorane, and 0.5% Evans blue dye (EBD) in PBS (13-15 mg/kg dose of EBD) was injected intravenously. After 5 minutes, triplicate intradermal injections of 100 ng rhVEGF165 in 100 μl PBS and of 100 μl PBS alone were administered on the flank. After 20 minutes, each animal was euthanized with Pentosol, and the skin containing the intradermal injection sites was removed for image analysis.” left out

[3] = test system: laser-induced choroidal neovascularization; test: Laser-induced Choroidal Neovascularization (CNV) in Rat (CNV Assay); assay type: in vivo
Method: Laser-induced Choroidal Neovascularization (CNV) in Rat (CNV Assay). CNV was induced and quantified in this model as previously described (Edelman and Castro. Exp. Eye Res. 2000; 71:523-533). On day 0, male Brown Norway rats (200-300 g) were anesthetized with 100 mg/kg Ketamine and 10 mg/kg Xylazine, and pupils were dilated with 1% Tropicamide. Using the blue-green setting of a Coherent Novus Argon Laser, 3 laser burns (90 mW for 0.1 s; 100 μm diameter) were given to each eye between the retinal vessels around the optic nerve head. Rats were dosed with test compounds in their indicated vehicles orally once daily.
On day 10, rats were sacrificed with 100% CO2, and blood vessels were labeled by vascular perfusion with 10 mg/ml FITC-dextran (MW 2×10^6). Using an epifluorescence microscope (20×) coupled to a spot digital camera and a PC, images were obtained from the flat mounts of the RPE-choroid-sclera from each eye, and the area occupied by hyperfluorescent neovessels within each laser lesion was measured using ImagePro 4 software.
To determine the dose required for 50% inhibition (ID50), the percent inhibition data was plotted as a function of oral dose, using the ‘best-fit’ analysis within MicroSoft Excel software. The ID50 value was verified visually by using the plotted data (horizontal line from 50% y value, at intersection with best-fit line drop vertical line to x axis (dose)).

| IC50 [2] [nM] | Compound | VEGF Stimulated Ca^++ signal assay % inhibition @ 10 μM [1] [%] | also measured |
| --- | --- | --- | --- |
| 480 | 4-(5-Chloro-2-oxo-1,2-dihydro-indol-3-ylidenemethyl)-6-indazolylamine [Example 103] | 96.59 | IC50 [1]: 1040 nM |
|  | O=C1Nc2ccccc2C1=CNc1cccc(Br)c1 [Example 2] | −0.5 |  |
|  | O=C1Nc2ccccc2C1=CNc1ccc(N2CCOCC2)cc1 [Example 40] |  | CNV Assay % inhibition (result in words) ([3]; 100 mg/kg (sid), PEG400, oral): toxic |
|  | CC(O)c1ccc(NC=C2C(=O)Nc3ccc(Cl)cc32)cc1 (stereo not shown) [Example 72, 5-Chloro-3-{[4-(1-hydroxy-ethyl)-phenylamino]-methylene}-1,3-dihydro-indol-2-one] | 81.50 | IC50 [1]: 1560 nM |
|  | O=C1Nc2ccccc2C1=CNc1ccc2c(c1)OCO2 [Example 80, 3-[(3,4-Methylenedioxyphenylamino)-methylene]-11,3-dihydro-indol-2-one] | 3.50 |  |
|  | COc1ccc(NC=C2C(=O)Nc3ccc(Cl)cc32)cc1F [Example 105, 5-Chloro-3-[(3-fluoro-4-methoxyphenylamino)-methylene]-1,3-dihydro-indol-2-one] |  | inhibition at 10 µM ([1]; Homo sapiens): 17.5% |
| 400 | Cc1cccc2c1C(=CNc1ccc(C(=O)O)c(O)c1)C(=O)N2 [Example 155, 2-Hydroxy-4-[(4-methyl-2-oxo-1,2-dihydro-indol-3-ylidenemethyl)-amino]-benzoic acid] |  |  |
| 160 | CCN(CC)Cc1cc(NC=C2C(=O)Nc3cccc(C)c32)ccc1O [Example 161, 3-[(3-Diethylaminomethyl-4-hydroxy-phenylamino)-methylene]-4-methyl-1,3-dihydro-indol-2-one] |  |  |
|  | CCN(CC)CCCOc1ccc(NC=C2C(=O)Nc3ccccc32)cc1 [Example 214, 3-{[4-(3-Diethylamino-propoxy)-phenylamino]-methylene}-1,3-dihydro-indol-2-one] |  | inhibition in vivo at 80 mg/kg ([3]; Rattus norvegicus, 240 h, 80 mg/kg (sid), corn oil, oral): 85% |
| 380 | O=C1Nc2ccc(F)cc2C1=CNc1ccc(N2CCCCC2)cc1 [Example 221] |  | inhibition at 10 µM ([1]; Homo sapiens): 97.6%; IC50 ([1]; Homo sapiens): ≤ 1000 nM |
|  | Cc1cccc2c1C(=CNc1ccc(NCCN3CCOCC3)cc1)C(=O)N2 [Example 242, 4-Methyl-3-{[4-(2-morpholin-4-yl-ethylamino)-phenylamino]-methylene}-1,3-dihydro-indol-2-one] | 95.82 |  |
